Source: patent publication US9301962B2, “Male contraceptive compositions and methods of use” (Baylor College of Medicine, priority 2010, dated 2016)

Tests used:
[1] = tested on: C57BL6/J/129S5 hybrid male mice; test: Mouse study: testes size and histology after daily i.p. JQ1
Method: (§1) The subsequent mixture was injected intraperitoneal into male mice at 1% of the body weight of the mouse (final amount is 50 mg/kg/day). The control was DMSO dissolved 1:10 in (2-Hydroxypropyl)-β-cyclodextrin and injected similarly. […] These studies were approved by the Administrative Committee on Laboratory Animal Care at Baylor College of Medicine, and all experiments were conducted in accordance with the NIH guide for the Care and Use of Laboratory Animals.

[2] = tested on: C57BL6/J/129S5 hybrid male mice; test: Male fertility, fertilization and embryo developmental potential
Method: Oocytes from these females were collected from their oviductal ampulla and cultured for 2 days to determine their developmental potential post-mating (FIG. 6B).
as §1

BRDT(1) = BRDT(1) (Homo sapiens, UniProt Q58F21); conditions: alpha-screen, H4Kac4 competition
Method: The N-terminal domain of human BRDT was cloned, expressed in E-Coli and purified as previously described (Filippakopoulos et al.).
Assays were performed with minor modifications from the manufacturer's protocol (PerkinElmer, USA). All reagents were diluted in 50 mM HEPES, 150 mM NaCl, 0.1% w/v BSA, 0.01% w/v Tween20, pH 7.5 and allowed to equilibrate to room temperature prior to addition to plates. After addition of Alpha beads to master solutions all subsequent steps were performed in low light conditions. […] Addition to wells was performed with either a multichannel pipet (for optimization experiments) or a Biotek EL406 liquid handler. After a 1 minute 1000 rpm spin-down, 100 nl of compounds from stock plates were added by pin transfer using a Janus Workstation (PerkinElmer, USA). The streptavidin-coated donor beads (25 μg/ml final) were added as with previous solution in a 2×, 10 μl volume. Following this addition, the plates were sealed with foil to block light exposure and to prevent evaporation. The plates were spun down again at 1000 rpm for 1 minute.

| Compound | Leydig cells of the testes, histology ([1]; 50 mg/kg/day i.p.) | gross testes size compared to control males ([1]; 50 mg/kg/day i.p.) | testosterone-responsive seminal vesicles, gross appearance ([1]; 50 mg/kg/day i.p.) | testis histology ([1]; 50 mg/kg/day i.p., 6 weeks treatment) | number of spermatids positive for transition protein 1 (TNP1) ([1]; immunohistochemistry of testes) | crossing of the blood:testis boundary ([1]; inferred from effect on seminiferous tubule compartment) | mating behavior (copulation plugs) ([2]; after 5 weeks of treatment, superovulated females) | effect on impregnation of females ([2]; males treated 3 weeks, housed with 2 females each, 3 more weeks of treatment, n=3) | treated adult male mice that sired two litters after cessation ([2]; within the first month following cessation of JQ1) | activity for BRDT(1) (BRDT(1)) |
| --- | --- | --- | --- | --- | --- | --- | --- | --- | --- | --- |
| Cc1sc2c(c1C)C(c1ccc(Cl)cc1)=NC(CC(=O)OC(C)(C)C)c1nnc(C)n1-2 (racemic) [JQ1, tert-Butyl 2-(4-(4-chlorophenyl)-2,3,9-trimethyl-6H-thieno[3,2-f][1,2,4]triazolo[4,3-a][1,4]diazepin-6-yl)acetate] | histologically normal | grossly smaller testes | grossly normal | seminiferous tubule degeneration | reduced | capable of effectively crossing the blood:testis boundary | did not alter mating behavior | contraceptive effect | 6 of 6 | – |
| Cc1sc2c(c1C)C(c1ccc(Cl)cc1)=N[C@H](CC(=O)OC(C)(C)C)c1nnc(C)n1-2 (racemic) [(−)-JQ1] | – | – | – | – | – | – | – | – | – | inactive |
